From BindingDB's records for doi:10.1021/acs.jmedchem.6b00799 (Glaxosmithkline R&D, 2016)

Target: DNA-dependent protein kinase catalytic subunit (Homo sapiens, UniProt P78527)
Test: Inhibition of DNA-PK (unknown origin)

Sequence of DNA-dependent protein kinase catalytic subunit (P78527 whole entry): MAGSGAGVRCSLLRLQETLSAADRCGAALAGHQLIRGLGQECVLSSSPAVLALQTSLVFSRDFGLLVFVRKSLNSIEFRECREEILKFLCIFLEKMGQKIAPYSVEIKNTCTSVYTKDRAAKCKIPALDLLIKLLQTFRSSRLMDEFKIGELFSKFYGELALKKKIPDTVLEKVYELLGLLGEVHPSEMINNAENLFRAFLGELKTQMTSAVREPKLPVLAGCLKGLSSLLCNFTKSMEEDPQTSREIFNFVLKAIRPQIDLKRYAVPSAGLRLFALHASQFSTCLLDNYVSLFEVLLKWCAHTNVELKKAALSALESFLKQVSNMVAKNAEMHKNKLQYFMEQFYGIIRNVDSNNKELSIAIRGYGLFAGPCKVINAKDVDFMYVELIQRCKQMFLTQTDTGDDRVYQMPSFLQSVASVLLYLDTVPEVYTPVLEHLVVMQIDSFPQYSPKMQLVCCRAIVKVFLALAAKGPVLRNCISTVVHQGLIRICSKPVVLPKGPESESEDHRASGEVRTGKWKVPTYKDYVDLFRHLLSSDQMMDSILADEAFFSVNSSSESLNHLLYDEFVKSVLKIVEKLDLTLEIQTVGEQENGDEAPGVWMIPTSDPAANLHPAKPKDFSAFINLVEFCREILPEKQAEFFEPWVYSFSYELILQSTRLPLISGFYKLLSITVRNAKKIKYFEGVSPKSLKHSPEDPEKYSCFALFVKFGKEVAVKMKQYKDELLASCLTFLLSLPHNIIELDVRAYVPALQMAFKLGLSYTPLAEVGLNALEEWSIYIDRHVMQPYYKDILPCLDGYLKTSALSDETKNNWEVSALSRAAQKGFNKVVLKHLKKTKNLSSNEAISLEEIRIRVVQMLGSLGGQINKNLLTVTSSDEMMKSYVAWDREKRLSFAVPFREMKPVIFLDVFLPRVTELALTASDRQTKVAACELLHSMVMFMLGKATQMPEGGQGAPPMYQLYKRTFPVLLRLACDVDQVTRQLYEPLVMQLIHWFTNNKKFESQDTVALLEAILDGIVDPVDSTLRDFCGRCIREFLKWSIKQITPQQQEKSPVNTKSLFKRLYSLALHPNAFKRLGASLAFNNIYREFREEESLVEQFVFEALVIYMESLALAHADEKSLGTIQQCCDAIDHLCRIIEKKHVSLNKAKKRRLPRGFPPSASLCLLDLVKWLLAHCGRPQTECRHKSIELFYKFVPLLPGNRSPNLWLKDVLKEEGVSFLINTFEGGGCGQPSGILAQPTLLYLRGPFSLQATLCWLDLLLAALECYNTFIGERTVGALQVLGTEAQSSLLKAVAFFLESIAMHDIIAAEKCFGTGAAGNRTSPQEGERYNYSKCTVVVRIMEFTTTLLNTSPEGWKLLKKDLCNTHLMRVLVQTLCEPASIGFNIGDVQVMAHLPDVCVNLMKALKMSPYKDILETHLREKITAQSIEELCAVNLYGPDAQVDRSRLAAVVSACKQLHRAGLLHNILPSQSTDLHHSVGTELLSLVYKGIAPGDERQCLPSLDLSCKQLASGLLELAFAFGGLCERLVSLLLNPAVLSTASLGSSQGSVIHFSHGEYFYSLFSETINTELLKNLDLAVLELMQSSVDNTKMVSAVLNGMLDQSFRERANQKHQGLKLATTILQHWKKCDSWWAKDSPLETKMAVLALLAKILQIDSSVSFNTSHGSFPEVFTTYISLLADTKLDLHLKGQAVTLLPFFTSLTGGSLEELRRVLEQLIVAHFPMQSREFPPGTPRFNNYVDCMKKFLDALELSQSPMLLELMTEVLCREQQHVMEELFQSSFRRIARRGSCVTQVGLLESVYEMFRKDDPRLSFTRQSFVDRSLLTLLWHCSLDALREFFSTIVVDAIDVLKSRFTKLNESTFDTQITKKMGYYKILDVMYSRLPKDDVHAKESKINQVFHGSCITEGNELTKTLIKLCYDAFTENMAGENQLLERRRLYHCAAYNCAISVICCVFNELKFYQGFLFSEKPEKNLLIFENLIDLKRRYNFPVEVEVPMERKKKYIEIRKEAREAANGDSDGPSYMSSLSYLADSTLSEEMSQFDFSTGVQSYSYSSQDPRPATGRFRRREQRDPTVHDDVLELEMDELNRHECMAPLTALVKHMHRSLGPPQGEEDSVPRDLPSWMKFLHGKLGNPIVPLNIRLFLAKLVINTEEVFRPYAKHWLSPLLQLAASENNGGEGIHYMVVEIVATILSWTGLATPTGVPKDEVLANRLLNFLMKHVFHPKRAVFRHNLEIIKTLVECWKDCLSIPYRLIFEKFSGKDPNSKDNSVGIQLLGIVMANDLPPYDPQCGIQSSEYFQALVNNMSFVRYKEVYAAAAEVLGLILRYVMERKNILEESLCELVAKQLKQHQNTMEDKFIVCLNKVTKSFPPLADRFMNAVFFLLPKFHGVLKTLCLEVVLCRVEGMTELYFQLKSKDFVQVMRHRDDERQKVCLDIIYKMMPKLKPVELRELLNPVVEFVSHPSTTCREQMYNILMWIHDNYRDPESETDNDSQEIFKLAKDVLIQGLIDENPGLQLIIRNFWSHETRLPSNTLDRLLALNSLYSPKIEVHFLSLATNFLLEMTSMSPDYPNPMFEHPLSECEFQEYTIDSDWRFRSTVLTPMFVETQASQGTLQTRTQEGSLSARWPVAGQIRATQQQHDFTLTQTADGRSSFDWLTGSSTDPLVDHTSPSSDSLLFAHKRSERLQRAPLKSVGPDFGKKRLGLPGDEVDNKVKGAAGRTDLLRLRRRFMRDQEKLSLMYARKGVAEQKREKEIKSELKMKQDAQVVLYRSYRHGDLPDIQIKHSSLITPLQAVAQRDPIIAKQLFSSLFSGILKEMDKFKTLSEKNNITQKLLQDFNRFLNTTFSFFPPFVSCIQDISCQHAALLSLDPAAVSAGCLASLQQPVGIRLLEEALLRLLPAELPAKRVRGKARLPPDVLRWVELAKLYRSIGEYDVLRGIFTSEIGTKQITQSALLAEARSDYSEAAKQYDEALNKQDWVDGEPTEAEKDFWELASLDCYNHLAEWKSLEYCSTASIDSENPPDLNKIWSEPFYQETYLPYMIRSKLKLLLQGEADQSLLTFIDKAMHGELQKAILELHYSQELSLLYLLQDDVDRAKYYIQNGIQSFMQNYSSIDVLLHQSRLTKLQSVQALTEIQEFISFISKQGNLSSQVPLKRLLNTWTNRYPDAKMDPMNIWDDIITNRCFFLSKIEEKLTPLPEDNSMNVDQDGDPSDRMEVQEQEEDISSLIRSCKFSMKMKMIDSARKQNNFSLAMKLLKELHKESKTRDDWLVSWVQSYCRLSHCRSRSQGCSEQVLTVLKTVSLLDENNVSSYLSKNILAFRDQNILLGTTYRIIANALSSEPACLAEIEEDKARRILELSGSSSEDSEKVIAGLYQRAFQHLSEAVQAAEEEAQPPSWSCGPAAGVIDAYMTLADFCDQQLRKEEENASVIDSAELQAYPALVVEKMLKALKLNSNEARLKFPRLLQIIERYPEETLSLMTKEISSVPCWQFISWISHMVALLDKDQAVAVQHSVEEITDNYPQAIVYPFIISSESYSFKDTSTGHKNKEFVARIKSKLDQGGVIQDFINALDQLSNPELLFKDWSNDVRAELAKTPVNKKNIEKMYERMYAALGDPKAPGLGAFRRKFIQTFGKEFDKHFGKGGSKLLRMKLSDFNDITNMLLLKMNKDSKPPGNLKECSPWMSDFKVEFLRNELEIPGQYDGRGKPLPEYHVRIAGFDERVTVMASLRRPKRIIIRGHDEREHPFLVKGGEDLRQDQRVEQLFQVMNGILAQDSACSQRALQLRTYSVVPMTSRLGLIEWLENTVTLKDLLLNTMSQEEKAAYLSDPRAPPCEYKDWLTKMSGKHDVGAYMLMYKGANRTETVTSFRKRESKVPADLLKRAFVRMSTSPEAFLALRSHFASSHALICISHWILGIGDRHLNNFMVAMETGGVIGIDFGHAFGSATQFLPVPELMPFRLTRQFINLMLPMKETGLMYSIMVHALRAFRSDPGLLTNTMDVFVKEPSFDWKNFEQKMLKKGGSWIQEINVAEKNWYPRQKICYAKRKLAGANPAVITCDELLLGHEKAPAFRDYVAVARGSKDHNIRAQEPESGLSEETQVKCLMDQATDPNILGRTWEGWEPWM

COc1ncc(-c2cc3c(c(NC(=O)CN4CCOCC4)c2)COC3)cc1NS(C)(=O)=O
IC50: 2510 nM
